Laboratory results reported in US12491170B2, “Stable treprostinil prodrugs” (United Therapeutics Corporation, priority 2020, dated 2025).

Legend:
[1] = Stability in cryopreserved hepatocytes, human
Protocol: (§1) Mixed-gender human cryopreserved hepatocytes, male Sprague-Dawley rat cryopreserved hepatocytes, and male Beagle dog cryopreserved hepatocytes were purchased from XenoTech. The hepatocytes were thawed and prepared according to the vendor's instructions, pooled into Krebs Henseleit buffer (KHB, pH 7.4), and kept on ice prior to the experiments. […] The final DMSO content in the incubation mixture was ≤0.1%. […] Aliquots of the test article were withdrawn (n=1) at 0, 15, 30, 60, and 120 minutes. […] Aliquots of 7-HC were withdrawn (n=1) at 0 and 15 minutes. The reaction was immediately terminated by adding two volumes of ice-cold acetonitrile (ACN) to the test article samples and three volumes of ACN containing internal standard to the positive control samples. The samples were then mixed and centrifuged to precipitate proteins. An aliquot of the supernatant was then diluted with water and analyzed by LC-MS/MS against calibration standards prepared in a matched matrix. […] All test article samples were analyzed for the dosed prodrugs as well as the drug, treprostinil. The test article concentration was compared to the concentration at time 0 to determine the percent of test article remaining at each time point. Half-lives and clearance values were calculated using GraphPad software, fitting to a single-phase exponential decay equation.

[2] = Stability in cryopreserved hepatocytes, rat
Protocol: as §1

[3] = Stability in cryopreserved hepatocytes, dog
Protocol: as §1

[4] = Stability in human subcutaneous skin homogenate
Protocol: The pool of skin homogenate was prepared by combining equal volumes of three lots that were tested in the initial skin homogenate lot assessment experiments.
A stock solution of calcein-AM was first prepared at 5 mM in DMSO, followed by a serial dilution into methanol at a concentration of 100 μM. 495 μL of skin homogenate was thawed and warmed to 37° C. A 5 μL aliquot of the 100 μM calcein-AM solution was spiked into the skin homogenate, for a final calcein-AM dosing concentration of 1 μM. After briefly mixing, 150 μL aliquots were removed in triplicate and transferred to 96-well Falcon plates. The plates were placed onto a Thermomixer and maintained at 37° C., with gentle shaking for the duration of the experiment. At each time point (0, 15, 30, 60, and 120 minutes), the plate was removed from the Thermomixer and transferred to a FLUOstar® plate reader, and the formation of calcein (Sigma) was monitored by fluorescence (490/515 nm). Calibration standards of calcein were prepared in distilled water by serial dilutions of a calcein DMSO stock at final concentrations ranging from 1 μM to 1 nM. All samples and standards were read concurrently (Table 13).
For each of the test articles, 495 μL of skin homogenate was added to triplicate centrifuge tubes. To each tube, 5 μL of a 100 μM solution of test article was added, for a final test article dosing concentration of 1 μM. The tubes were placed onto a Thermomixer and maintained at 37° C. with gentle shaking for the duration of the experiment. At each time point (0, 30, 60, and 120 minutes), a 100 μL aliquot was removed from each tube and combined with 200 μL of acetonitrile to stop the stability reaction. The tubes were mixed and centrifuged at 3000 rpm for 10 minutes. Aliquots of supernatant were removed and diluted 1:1 with distilled water containing internal standard (2 μM treprostinil-d4). Calibration standards for the treprostinil analysis were prepared for each test article in a surrogate matrix (supernatant from a mixture of 1:2 human plasma:acetonitrile), at concentrations ranging from 1 μM to 1 nM. Calibration standards were also diluted 1:1 with distilled water containing internal standard. The disappearance of each individual test article was monitored, as well as the formation of treprostinil (Table 14 and Table 15).

[5] = Stability in liver microsomes, human; settings: human
Protocol: (§2) Mixed-gender human liver microsomes, male Sprague-Dawley rat liver microsomes, and male Beagle dog liver microsomes were purchased from XenoTech. The reaction mixture, minus NADPH, was prepared as described below. […] An aliquot of the reaction mixture (without cofactor) was equilibrated in a shaking water bath at 37° C. for 5 minutes. The reaction was initiated by the addition of cofactor, and the mixture was incubated in a shaking water bath at 37° C. Aliquots (200 μL) were withdrawn at 0, 10, 20, 30, and 60 minutes. Test article samples were immediately combined with 400 μL of ice-cold acetonitrile (ACN) to terminate the reaction. […] The samples were then mixed and centrifuged to precipitate proteins. Aliquots of the supernatant were removed, diluted 1:1 into distilled water containing internal standard, and analyzed by LC-MS/MS against calibration standards prepared in a matched matrix. All samples were analyzed for the dosed prodrugs as well as the drug, treprostinil. The test article concentration was compared to the concentration at time 0 to determine the percent of test article remaining at each time point. Half-lives and clearance were calculated using GraphPad software, fitting to a single-phase exponential decay equation.
(§3) • Liver Microsomes 0.5 mg/mL • NADPH (cofactor) 1 mM • Potassium Phosphate, pH 7.4 100 mM • Magnesium Chloride 5 mM • Test Article 1 μM

[6] = Stability in liver microsomes, rat; settings: rat
Protocol: as §2, §3

[7] = Stability in liver microsomes, dog; settings: dog
Protocol: as §2, §3

[8] = both, human, 15 min, 100 μM, pH 7.4
[9] = male, Sprague-Dawley, rat, 15 min, 100 μM, pH 7.4
[10] = male, Beagle, dog, 15 min, 100 μM, pH 7.4

## O=c1ccc2ccc(O)cc2o1 [7-Hydroxycoumarin, 7-hydroxycoumarin, reference compound]
[1]; [8]
  Formation Rate of 7-HC-G (glucuronide): 97.7 pmol/min/10^6 cells
  Formation Rate of 7-HC-S (sulfate): 10.8 pmol/min/10^6 cells
[2]; [9]
  Formation Rate of 7-HC-G (glucuronide): 91.4 pmol/min/10^6 cells
  Formation Rate of 7-HC-S (sulfate): 24.7 pmol/min/10^6 cells
[3]; [10]
  Formation Rate of 7-HC-G (glucuronide): 114 pmol/min/10^6 cells
  Formation Rate of 7-HC-S (sulfate): 35.9 pmol/min/10^6 cells

## CCCCCC(CCC1C(O)CC2Cc3c(cccc3OCC(=O)O)CC21)OC(=O)OC (stereo not drawn) [IV 1st]
[4]; human
  AUC: 7.07 µmol·min/L

## CCCCCC(CCC1C(O)CC2Cc3c(cccc3OCC(=O)O)CC21)OC(=O)OC (stereo not drawn) [IV 2nd]
[4]; human
  AUC: 62.69 µmol·min/L

## CCCCCC(CCC1C(O)CC2Cc3c(cccc3OCC(=O)O)CC21)OC(=O)OC (stereo not drawn) [IV 3rd]
[4]; human
  AUC: 9.59 µmol·min/L

## CCCCCC(CCC1C(O)CC2Cc3c(cccc3OCC(=O)O)CC21)OCc1oc(=O)oc1C (stereo not drawn) [LI]
[1]
  Trep Concentration (μM) 0 min: 0.0425 µM
  Trep Concentration (μM) 15 min: 0.647 µM
  Trep Concentration (μM) 30 min: 0.626 µM
  Trep Concentration (μM) 60 min: 0.608 µM
  Trep Concentration (μM) 120 min: 0.55 µM
[1]; human
  AUC: 67.97 µmol·min/L
[2]
  Trep Concentration (μM) 0 min: 0.327 µM
  Trep Concentration (μM) 15 min: 0.703 µM
  Trep Concentration (μM) 30 min: 0.61 µM
  Trep Concentration (μM) 60 min: 0.523 µM
  Trep Concentration (μM) 120 min: 0.464 µM
[2]; rat
  AUC: 64.18 µmol·min/L
[3]
  Trep Concentration (μM) 0 min: 0.0214 µM
  Trep Concentration (μM) 15 min: 0.627 µM
  Trep Concentration (μM) 30 min: 0.605 µM
  Trep Concentration (μM) 60 min: 0.537 µM
  Trep Concentration (μM) 120 min: 0.482 µM
[3]; dog
  AUC: 61.80 µmol·min/L

## CCCCCC(CCC1C(O)CC2Cc3c(cccc3OCC(=O)O)CC21)OC(=O)OC (stereo not drawn) [Prodrug IV]
[5]
  AUC Mono (treprostinil formed): 16.9 µmol·min/L
[6]
  AUC Mono (treprostinil formed): 49.7 µmol·min/L
[7]
  AUC Mono (treprostinil formed): 56.0 µmol·min/L
[1]; human
  Mono AUC (treprostinil formed): 39.8 µmol·min/L
[2]; rat
  Mono AUC (treprostinil formed): 70.0 µmol·min/L
[3]; dog
  Mono AUC (treprostinil formed): 48.0 µmol·min/L
[4]; human
  Mono AUC (treprostinil formed): 9.59 µmol·min/L

## C[C@]12CC[C@H]3[C@@H](CCC4=CC(=O)CC[C@@]43C)[C@@H]1CC[C@@H]2O [Testosterone, testosterone, reference compound]
[1]; human hepatocytes, 1 μM, control
  Half-life (positive control): 4.82 min

## CCCCCC(O)CCC1C(O)CC2Cc3c(cccc3OCC(=O)NCC(=O)O)CC21 (stereo not drawn) [VII new]
[4]; human
  AUC: 0.00 µmol·min/L

## CCCCCC(O)CCC1C(O)CC2Cc3c(cccc3OCC(=O)NCC(=O)O)CC21 (stereo not drawn) [VII orig]
[4]; human
  AUC: 0.14 µmol·min/L

## CCCCCC(CCC1C(O)CC2Cc3c(cccc3OCC(=O)O)CC21)OC(=O)NC (stereo not drawn) [VIII]
[1]
  Trep Concentration (μM) 0 min: 0 µM
  Trep Concentration (μM) 15 min: 0 µM
  Trep Concentration (μM) 30 min: 0 µM
  Trep Concentration (μM) 60 min: 0.00464 µM
  Trep Concentration (μM) 120 min: 0 µM
[1]; human
  AUC: 0.21 µmol·min/L
[2]
  Trep Concentration (μM) 0 min: 0 µM
  Trep Concentration (μM) 15 min: 0 µM
  Trep Concentration (μM) 30 min: 0 µM
  Trep Concentration (μM) 60 min: 0.00511 µM
  Trep Concentration (μM) 120 min: 0 µM
[2]; rat
  AUC: 0.23 µmol·min/L
[3]
  Trep Concentration (μM) 0 min: 0 µM
  Trep Concentration (μM) 15 min: 0 µM
  Trep Concentration (μM) 30 min: 0 µM
  Trep Concentration (μM) 60 min: 0 µM
  Trep Concentration (μM) 120 min: 0 µM
[3]; dog
  AUC: 0.00 µmol·min/L
[4]
  Trep Concentration 0 min: 0 µM
  Trep Concentration 30 min: 0 µM
  Trep Concentration 60 min: 0 µM
  Trep Concentration 120 min: 0 µM
[4]; human
  AUC: 0.00 µmol·min/L

## CCCCCC(CCC1C(O)CC2Cc3c(cccc3OCC(=O)O)CC21)OC(=O)OCCOCCOC (stereo not drawn) [XLI]
[4]
  Trep Concentration 0 min: 0 µM
  Trep Concentration 30 min: 0.0526 µM
  Trep Concentration 60 min: 0.091 µM
  Trep Concentration 120 min: 0.19 µM
[4]; human
  AUC: 11.37 µmol·min/L

## CCCCCC(CCC1C(O)CC2Cc3c(cccc3OCC(=O)O)CC21)OC(=O)OCCOC (stereo not drawn) [XL]
[4]
  Trep Concentration 0 min: 0 µM
  Trep Concentration 30 min: 0.202 µM
  Trep Concentration 60 min: 0.329 µM
  Trep Concentration 120 min: 0.59 µM
[4]; human
  AUC: 38.57 µmol·min/L

## CCCCCC(CCC1C(O)CC2Cc3c(cccc3OCC(=O)O)CC21)OC(=O)CCC(=O)O (stereo not drawn) [XX new]
[4]
  Trep Concentration 0 min: 0 µM
  Trep Concentration 30 min: 0.00878 µM
  Trep Concentration 60 min: 0.0149 µM
  Trep Concentration 120 min: 0.0271 µM
[4]; human
  AUC: 1.75 µmol·min/L
